According to PubChem BioAssay (NCI):
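Values below derive from 48-hour exposures of cells grown in 96-well plates, with endpoints linearly interpolated between the two concentrations bracketing the appropriate inhibition level. At the TGI there is no net growth.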

Legend:
Assay in all cases: NCI-60 cell line screen, 48 h
HOP-62 NSCLC = test system: HOP-62 NSCLC
HS 578T breast = test system: HS 578T breast
TK-10 renal = test system: TK-10 renal
HT29 colon = test system: HT29 colon
MALME-3M melanoma = test system: MALME-3M melanoma
HCT-15 colon = test system: HCT-15 colon
UO-31 renal = test system: UO-31 renal
SK-MEL-5 melanoma = test system: SK-MEL-5 melanoma
OVCAR-5 ovarian = test system: OVCAR-5 ovarian
MDA-MB-435 = test system: MDA-MB-435
SK-MEL-2 melanoma = test system: SK-MEL-2 melanoma
IGROV1 ovarian = test system: IGROV1 ovarian
MOLT-4 leukemia = test system: MOLT-4 leukemia
EKVX NSCLC = test system: EKVX NSCLC
M14 melanoma = test system: M14 melanoma
HOP-92 NSCLC = test system: HOP-92 NSCLC
OVCAR-3 ovarian = test system: OVCAR-3 ovarian
SR leukemia = test system: SR leukemia

Row | Compound | TGI (HOP-62 NSCLC) | TGI (HS 578T breast) | TGI (TK-10 renal) | TGI (HT29 colon) | TGI (MALME-3M melanoma) | TGI (HCT-15 colon) | TGI (UO-31 renal) | TGI (SK-MEL-5 melanoma) | TGI (OVCAR-5 ovarian) | TGI (MDA-MB-435) | TGI (SK-MEL-2 melanoma) | TGI (IGROV1 ovarian) | TGI (MOLT-4 leukemia) | TGI (EKVX NSCLC) | TGI (M14 melanoma) | TGI (HOP-92 NSCLC) | TGI (OVCAR-3 ovarian) | TGI (SR leukemia)
1 | COC(=O)c1cc(OS(=O)(=O)C(F)(F)F)c(=O)n2c1CCCC2 | > 100 µM | > 100 µM | > 100 µM | > 100 µM | > 100 µM | > 100 µM | > 100 µM | > 100 µM | > 100 µM | > 100 µM | > 100 µM | > 100 µM | > 100 µM | > 100 µM | > 100 µM |  |  | 
2 | CC(C)(C)c1cc2c(c(C(C)(C)C)c1O)CC(=O)O2 | 92.8 µM | 97.3 µM | > 100 µM | > 100 µM |  | > 100 µM | 66.6 µM | 32.2 µM | > 100 µM | 66 µM | 47.7 µM | 89.3 µM | > 100 µM | > 100 µM | 62.5 µM | 17.9 µM | 50.7 µM | 
3 | [N-]=[N+]=NC1(c2ccccc2)C(=O)C(Cl)=C(c2ccccc2)N(c2ccccc2)C1=O (stereo not given) | > 100 µM |  | > 100 µM | > 100 µM | > 100 µM | > 100 µM | > 100 µM | > 100 µM | > 100 µM |  | > 100 µM | > 100 µM | > 100 µM | > 100 µM | > 100 µM | > 100 µM | > 100 µM | > 100 µM
4 | N#C/C(c1nc2ccccc2[nH]1)=c1\s/c(=C(/N)O)c(=N)n1-c1ccccc1 | > 100 µM |  | > 100 µM | > 100 µM | > 100 µM | > 100 µM | > 100 µM | > 100 µM | > 100 µM |  | > 100 µM | > 100 µM | > 100 µM | > 100 µM | > 100 µM | > 100 µM | > 100 µM | 
5 | COCCOC(=O)NCn1cc(-c2ccccc2)nn1 | > 100 µM |  | > 100 µM | > 100 µM | > 100 µM | > 100 µM |  | > 100 µM | > 100 µM | > 100 µM | > 100 µM | > 100 µM | > 100 µM | > 100 µM | > 100 µM | > 100 µM |  | > 100 µM
6 | O=C1CNC(=O)/C(=C/c2c[nH]c3ccccc23)N1 | > 100 µM | > 100 µM | > 100 µM | > 100 µM | > 100 µM | > 100 µM | > 100 µM | > 100 µM | > 100 µM | > 100 µM | > 100 µM | > 100 µM | > 100 µM | > 100 µM | > 100 µM | > 100 µM | > 100 µM | 
7 | Cc1ccc(S(=O)(=O)N2CCCSCCSCCCN(S(=O)(=O)c3ccc(C)cc3)CC2)cc1 | > 100 µM | > 100 µM | > 100 µM | > 100 µM |  | > 100 µM | > 100 µM | > 100 µM | > 100 µM | > 100 µM | > 100 µM | > 100 µM | > 100 µM | > 100 µM | > 100 µM |  | > 100 µM | 
8 | O=C1CCC(=O)N1CNc1ccc2c(c1)S(=O)(=O)c1ccccc1O2 | > 100 µM | > 100 µM | > 100 µM | > 100 µM | > 100 µM | > 100 µM | > 100 µM | > 100 µM | > 100 µM | > 100 µM | > 100 µM | > 100 µM | > 100 µM | > 100 µM | > 100 µM | > 100 µM | > 100 µM | 
9 | Cc1c(O)c(OC2OC(CO)C(O)C(O)C2O)cc2c1CC[C@@H]1C2(C)C(=O)C[C@]2(C)[C@@H]([C@@](C)(O)C3CCC(C)(C)O3)[C@H](O)C[C@@]12C (stereo not given in full) | > 100 µM |  | > 100 µM | > 100 µM | > 100 µM | > 100 µM | > 100 µM | > 100 µM | > 100 µM | > 100 µM | > 100 µM | > 100 µM | > 100 µM | > 100 µM | > 100 µM | > 100 µM | > 100 µM | > 100 µM
10 | O=C1c2c(O)cc(O)cc2C(C2OC(CO)C(O)C(O)C2O)c2cc(CO)cc(O)c21 (stereo not given) | > 100 µM |  | > 100 µM | > 100 µM | > 100 µM | > 100 µM | > 100 µM | > 100 µM | > 100 µM | > 100 µM |  | > 100 µM | > 100 µM | > 100 µM | > 100 µM | > 100 µM | > 100 µM | > 100 µM
11 | O=C1C2=Cc3ccccc3OC2(O)Oc2ccccc21 (stereo not given) | > 100 µM |  | > 100 µM | > 100 µM | > 100 µM | > 100 µM |  | > 100 µM | > 100 µM | > 100 µM | > 100 µM | > 100 µM | > 100 µM | > 100 µM | > 100 µM | > 100 µM | > 100 µM | > 100 µM
12 | C[C@@H](CC(=O)O)OC1OC(COC(=O)C(C)(C)C)C(OC(=O)C(C)(C)C)C(OC(=O)C(C)(C)C)C1OC(=O)C(C)(C)C (stereo not given in full) | > 100 µM | > 100 µM | > 100 µM | > 100 µM |  | 84.9 µM |  | 98.4 µM | > 100 µM | > 100 µM | > 100 µM | > 100 µM | 81.3 µM | > 100 µM | > 100 µM | > 100 µM | > 100 µM | 
13 | C=C1[C@H]2O[C@H]2[C@@H](OC(C)=O)[C@@]2(C)[C@@H](OC(C)=O)C[C@@H](OC(=O)CCC)[C@@](C)(O)[C@@H]2[C@@H](OC(C)=O)[C@]2(O)[C@@H](C)C(=O)O[C@H]2[C@H]1Cl | > 100 µM |  | > 100 µM | > 100 µM | > 100 µM | > 100 µM | > 100 µM | > 100 µM | > 100 µM | > 100 µM | > 100 µM |  | > 100 µM | > 100 µM | > 100 µM | > 100 µM | > 100 µM | 
